Columns and labels:
Assay in all cases: KINOMEscan competition binding
Details in all cases: compound 10.0 µM
[1] = target: MAP3K15 (human) (UniProt Q6ZN16)
[2] = target: SRPK1 (human) (UniProt Q96SB4)
[3] = target: MARK3 (human) (UniProt P27448)
[4] = target: CDK14 (human) (UniProt O94921)
[5] = target: AURKA (human) (UniProt O14965)
[6] = target: SLK (human) (UniProt Q9H2G2)
[7] = target: RPS6KA2 KD1 (human) (UniProt Q15349)
[8] = target: MAP2K5 (human) (UniProt Q13163)
[9] = target: TGFBR2 (human) (UniProt P37173)
[10] = target: STK39 (human) (UniProt Q9UEW8)
[11] = target: RIOK2 (human) (UniProt Q9BVS4)
[12] = tested on: RET (human), P07949 [V804L]
[13] = target: MARK4 (human) (UniProt Q96L34)
[14] = target: MKNK1 (human) (UniProt Q9BUB5)
[15] = target: CSNK2A2 (human) (UniProt P19784)
[16] = target: FRK (human) (UniProt P42685)
[17] = target: JAK1 JH2 pseudokinase (human) (UniProt P23458)
[18] = target: INSR (human) (UniProt P06213)
[19] = target: PAK7 (human) (UniProt Q9P286)
[20] = target: CDK19 (human) (UniProt Q9BWU1)
[21] = target: CHEK1 (human) (UniProt O14757)
[22] = target: MAPKAPK2 (human) (UniProt P49137)
[23] = target: NEK11 (human) (UniProt Q8NG66)
[24] = target: PRKD3 (human) (UniProt O94806)
[25] = tested on: FGFR3 (human), P22607 [G697C]
[26] = target: PHKG1 (human) (UniProt Q16816)
[27] = target: EPHB3 (human) (UniProt P54753)
[28] = target: ABL2 (human) (UniProt P42684)
[29] = target: DAPK1 (human) (UniProt P53355)
[30] = target: TNK2 (human) (UniProt Q07912)
[31] = target: PKN3 (M.tuberculosis) (UniProt Q6P5Z2)
[32] = target: KDR (human) (UniProt P35968)
[33] = target: EPHA2 (human) (UniProt P29317)
[34] = target: DCLK3 (human) (UniProt Q9C098)
[35] = target: STK4 (human) (UniProt Q13043)
[36] = target: NEK1 (human) (UniProt Q96PY6)
[37] = target: PKN2 (human) (UniProt Q16513)
[38] = target: PHKG2 (human) (UniProt P15735)
[39] = target: ADCK3 (human) (UniProt Q8NI60)
[40] = target: STK16 (human) (UniProt O75716)

Chain of STK4 (human) (Q13043 whole entry, looked up): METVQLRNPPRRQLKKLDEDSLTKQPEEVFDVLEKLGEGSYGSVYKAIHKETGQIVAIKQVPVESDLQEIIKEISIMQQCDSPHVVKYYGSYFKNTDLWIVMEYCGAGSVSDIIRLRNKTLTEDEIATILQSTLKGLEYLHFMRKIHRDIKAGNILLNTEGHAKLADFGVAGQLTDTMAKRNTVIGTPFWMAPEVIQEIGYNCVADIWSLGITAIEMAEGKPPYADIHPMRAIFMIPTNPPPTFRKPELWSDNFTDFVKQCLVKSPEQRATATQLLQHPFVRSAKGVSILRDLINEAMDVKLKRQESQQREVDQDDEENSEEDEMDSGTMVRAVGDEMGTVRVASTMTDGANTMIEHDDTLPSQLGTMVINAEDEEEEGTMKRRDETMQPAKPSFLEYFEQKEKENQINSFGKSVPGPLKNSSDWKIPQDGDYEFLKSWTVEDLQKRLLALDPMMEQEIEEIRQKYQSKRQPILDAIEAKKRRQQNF
Chain of FRK (human) (P42685 whole entry, looked up): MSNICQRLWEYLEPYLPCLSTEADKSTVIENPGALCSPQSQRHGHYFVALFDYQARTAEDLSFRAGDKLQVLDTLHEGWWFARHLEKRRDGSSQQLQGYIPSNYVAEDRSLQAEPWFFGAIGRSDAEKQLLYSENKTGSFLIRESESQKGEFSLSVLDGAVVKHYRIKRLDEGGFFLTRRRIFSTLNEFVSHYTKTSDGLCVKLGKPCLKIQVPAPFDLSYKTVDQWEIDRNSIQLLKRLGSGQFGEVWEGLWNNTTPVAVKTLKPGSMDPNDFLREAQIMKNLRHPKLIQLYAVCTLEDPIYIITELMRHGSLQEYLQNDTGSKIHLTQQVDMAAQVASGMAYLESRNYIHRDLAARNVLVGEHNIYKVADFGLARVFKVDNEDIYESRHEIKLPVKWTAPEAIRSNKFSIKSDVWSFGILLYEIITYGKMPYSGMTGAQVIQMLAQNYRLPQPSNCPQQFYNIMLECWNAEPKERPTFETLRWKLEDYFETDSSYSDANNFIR
Chain of MARK4 (human) (Q96L34 whole entry, looked up): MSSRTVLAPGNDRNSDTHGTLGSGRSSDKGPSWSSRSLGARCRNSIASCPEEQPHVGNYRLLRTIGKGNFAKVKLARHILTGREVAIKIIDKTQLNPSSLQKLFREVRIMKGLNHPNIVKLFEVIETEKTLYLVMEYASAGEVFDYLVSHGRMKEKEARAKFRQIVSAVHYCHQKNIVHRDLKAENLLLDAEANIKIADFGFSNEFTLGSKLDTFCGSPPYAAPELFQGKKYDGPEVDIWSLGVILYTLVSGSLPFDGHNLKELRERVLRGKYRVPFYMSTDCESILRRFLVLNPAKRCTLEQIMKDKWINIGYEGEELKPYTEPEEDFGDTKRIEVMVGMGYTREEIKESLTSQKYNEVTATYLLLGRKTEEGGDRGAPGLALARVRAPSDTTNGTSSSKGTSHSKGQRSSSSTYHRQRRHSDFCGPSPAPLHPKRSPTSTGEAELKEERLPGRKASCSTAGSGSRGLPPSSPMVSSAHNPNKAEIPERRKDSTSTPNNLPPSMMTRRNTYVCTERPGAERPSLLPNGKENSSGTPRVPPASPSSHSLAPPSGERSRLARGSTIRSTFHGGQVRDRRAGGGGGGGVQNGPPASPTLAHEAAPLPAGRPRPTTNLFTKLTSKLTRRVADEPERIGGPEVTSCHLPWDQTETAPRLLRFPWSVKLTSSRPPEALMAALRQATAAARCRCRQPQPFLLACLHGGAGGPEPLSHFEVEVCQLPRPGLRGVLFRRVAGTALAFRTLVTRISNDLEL
Chain of DAPK1 (human) (P53355 whole entry, looked up): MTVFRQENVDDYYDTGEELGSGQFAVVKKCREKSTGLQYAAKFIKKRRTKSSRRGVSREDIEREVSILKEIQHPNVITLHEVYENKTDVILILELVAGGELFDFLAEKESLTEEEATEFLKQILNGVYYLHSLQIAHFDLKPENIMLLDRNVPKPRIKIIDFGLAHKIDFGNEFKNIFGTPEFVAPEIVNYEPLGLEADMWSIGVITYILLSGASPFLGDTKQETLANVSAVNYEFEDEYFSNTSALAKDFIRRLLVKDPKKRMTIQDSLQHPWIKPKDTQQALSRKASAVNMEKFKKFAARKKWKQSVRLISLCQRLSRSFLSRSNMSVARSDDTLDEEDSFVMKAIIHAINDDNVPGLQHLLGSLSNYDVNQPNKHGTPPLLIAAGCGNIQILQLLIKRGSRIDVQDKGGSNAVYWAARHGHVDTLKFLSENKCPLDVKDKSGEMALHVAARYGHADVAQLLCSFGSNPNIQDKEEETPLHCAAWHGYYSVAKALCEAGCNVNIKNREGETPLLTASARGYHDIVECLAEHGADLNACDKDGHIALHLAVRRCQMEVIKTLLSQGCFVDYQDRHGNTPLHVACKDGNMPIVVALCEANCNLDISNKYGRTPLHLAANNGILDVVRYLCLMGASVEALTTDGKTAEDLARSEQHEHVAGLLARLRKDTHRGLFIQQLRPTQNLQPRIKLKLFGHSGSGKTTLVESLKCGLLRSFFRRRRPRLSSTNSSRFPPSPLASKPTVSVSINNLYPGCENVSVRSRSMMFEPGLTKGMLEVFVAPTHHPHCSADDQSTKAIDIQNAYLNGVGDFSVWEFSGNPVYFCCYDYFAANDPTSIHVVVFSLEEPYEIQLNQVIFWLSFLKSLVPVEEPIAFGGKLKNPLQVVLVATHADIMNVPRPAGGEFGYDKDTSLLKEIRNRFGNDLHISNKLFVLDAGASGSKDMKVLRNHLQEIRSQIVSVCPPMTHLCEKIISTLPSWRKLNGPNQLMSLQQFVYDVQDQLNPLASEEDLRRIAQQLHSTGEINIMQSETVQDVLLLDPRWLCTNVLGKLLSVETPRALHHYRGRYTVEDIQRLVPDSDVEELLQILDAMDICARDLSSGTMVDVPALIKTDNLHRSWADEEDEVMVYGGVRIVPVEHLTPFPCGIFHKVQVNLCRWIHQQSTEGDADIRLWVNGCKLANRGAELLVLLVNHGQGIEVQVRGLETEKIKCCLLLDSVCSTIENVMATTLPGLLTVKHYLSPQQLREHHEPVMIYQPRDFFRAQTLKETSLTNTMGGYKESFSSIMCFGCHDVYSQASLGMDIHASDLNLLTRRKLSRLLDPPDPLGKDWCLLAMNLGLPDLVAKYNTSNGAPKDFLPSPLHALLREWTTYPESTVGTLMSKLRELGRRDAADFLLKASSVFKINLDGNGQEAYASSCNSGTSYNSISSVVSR
Chain of SRPK1 (human) (Q96SB4 whole entry, looked up): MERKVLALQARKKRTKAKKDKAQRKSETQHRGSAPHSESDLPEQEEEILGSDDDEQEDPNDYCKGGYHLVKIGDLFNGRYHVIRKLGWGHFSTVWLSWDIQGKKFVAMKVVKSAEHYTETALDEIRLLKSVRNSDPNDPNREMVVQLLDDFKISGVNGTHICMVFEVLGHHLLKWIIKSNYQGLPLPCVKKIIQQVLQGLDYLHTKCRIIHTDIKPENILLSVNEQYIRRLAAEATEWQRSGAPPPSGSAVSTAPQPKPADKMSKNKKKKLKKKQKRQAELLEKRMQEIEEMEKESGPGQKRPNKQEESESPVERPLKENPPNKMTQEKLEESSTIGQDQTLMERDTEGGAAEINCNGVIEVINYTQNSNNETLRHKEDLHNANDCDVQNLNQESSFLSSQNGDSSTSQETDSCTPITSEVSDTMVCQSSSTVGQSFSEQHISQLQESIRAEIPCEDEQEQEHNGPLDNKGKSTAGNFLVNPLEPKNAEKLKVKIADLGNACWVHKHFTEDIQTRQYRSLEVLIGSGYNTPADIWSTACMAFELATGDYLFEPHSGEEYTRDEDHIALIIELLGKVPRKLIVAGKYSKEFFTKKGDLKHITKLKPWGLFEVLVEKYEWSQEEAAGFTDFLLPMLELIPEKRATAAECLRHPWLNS
Chain of TGFBR2 (human) (P37173 whole entry, looked up): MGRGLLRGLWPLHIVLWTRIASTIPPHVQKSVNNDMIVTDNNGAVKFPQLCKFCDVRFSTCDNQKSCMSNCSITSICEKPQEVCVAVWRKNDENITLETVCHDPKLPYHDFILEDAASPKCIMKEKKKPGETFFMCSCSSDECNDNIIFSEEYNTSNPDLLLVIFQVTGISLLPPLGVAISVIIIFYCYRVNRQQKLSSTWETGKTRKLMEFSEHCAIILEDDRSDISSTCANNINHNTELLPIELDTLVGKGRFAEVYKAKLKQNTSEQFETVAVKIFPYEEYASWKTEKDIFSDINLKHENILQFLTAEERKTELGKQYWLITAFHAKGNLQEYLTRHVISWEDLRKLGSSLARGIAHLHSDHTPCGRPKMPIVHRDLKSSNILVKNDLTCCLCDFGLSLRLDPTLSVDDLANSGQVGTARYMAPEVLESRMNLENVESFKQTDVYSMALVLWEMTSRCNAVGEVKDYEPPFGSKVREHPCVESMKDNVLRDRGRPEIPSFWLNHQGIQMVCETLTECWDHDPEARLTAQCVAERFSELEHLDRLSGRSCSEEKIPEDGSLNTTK
Chain of CDK14 (human) (O94921 whole entry, looked up): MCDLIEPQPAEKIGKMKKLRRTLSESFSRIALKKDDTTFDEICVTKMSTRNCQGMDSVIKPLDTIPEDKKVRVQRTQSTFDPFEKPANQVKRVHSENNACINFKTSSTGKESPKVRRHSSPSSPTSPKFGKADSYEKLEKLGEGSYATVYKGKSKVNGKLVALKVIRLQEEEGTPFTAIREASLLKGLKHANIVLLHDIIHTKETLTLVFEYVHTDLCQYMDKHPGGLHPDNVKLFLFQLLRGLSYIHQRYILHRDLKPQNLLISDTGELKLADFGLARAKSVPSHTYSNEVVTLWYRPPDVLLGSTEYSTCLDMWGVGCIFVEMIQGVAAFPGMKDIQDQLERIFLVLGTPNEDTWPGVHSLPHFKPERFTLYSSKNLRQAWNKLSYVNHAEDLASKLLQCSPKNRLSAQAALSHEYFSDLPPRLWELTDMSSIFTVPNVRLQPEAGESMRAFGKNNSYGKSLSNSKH

SMILES	kinase still bound, per cent of control [1] [%]	kinase still bound, per cent of control [2] [%]	kinase still bound, per cent of control [3] [%]	kinase still bound, per cent of control [4] [%]	kinase still bound, per cent of control [5] [%]	kinase still bound, per cent of control [6] [%]	kinase still bound, per cent of control [7] [%]	kinase still bound, per cent of control [8] [%]	kinase still bound, per cent of control [9] [%]	kinase still bound, per cent of control [10] [%]	kinase still bound, per cent of control [11] [%]	kinase still bound, per cent of control [12] [%]	kinase still bound, per cent of control [13] [%]	kinase still bound, per cent of control [14] [%]	kinase still bound, per cent of control [15] [%]	kinase still bound, per cent of control [16] [%]	kinase still bound, per cent of control [17] [%]	kinase still bound, per cent of control [18] [%]	kinase still bound, per cent of control [19] [%]	kinase still bound, per cent of control [20] [%]	other results
COc1cc2ncnc(Nc3cccc(Cl)c3)c2cc1OC	34	67	100	88	43	2	85	3.5	91	57	43	100	100	4.6	16	29	38	62	90	93	kinase still bound, per cent of control [21]: 100%; kinase still bound, per cent of control [22]: 100%; kinase still bound, per cent of control [23]: 99%; kinase still bound, per cent of control [24]: 88%; kinase still bound, per cent of control [25]: 100%; kinase still bound, per cent of control [26]: 67%; kinase still bound, per cent of control [27]: 97%; kinase still bound, per cent of control [28]: 34%; kinase still bound, per cent of control [29]: 53%; kinase still bound, per cent of control [30]: 61%; kinase still bound, per cent of control [31]: 100%; kinase still bound, per cent of control [32]: 31%; kinase still bound, per cent of control [33]: 62%; kinase still bound, per cent of control [34]: 52%; kinase still bound, per cent of control [35]: 100%; kinase still bound, per cent of control [36]: 77%; kinase still bound, per cent of control [37]: 59%; kinase still bound, per cent of control [38]: 93%; kinase still bound, per cent of control [39]: 56%; kinase still bound, per cent of control [40]: 97%
N#Cc1cc(-c2ccnc(Nc3ccc(-n4cnc(-c5cccnc5)n4)cc3)n2)cc(N2CCOCC2)c1	66	30	100	35	93	10	73	8.6	100	100	1.4	100	78	100	11	92	0.95	78	21	88	kinase still bound, per cent of control [21]: 100%; kinase still bound, per cent of control [22]: 100%; kinase still bound, per cent of control [23]: 100%; kinase still bound, per cent of control [24]: 100%; kinase still bound, per cent of control [25]: 90%; kinase still bound, per cent of control [26]: 65%; kinase still bound, per cent of control [27]: 88%; kinase still bound, per cent of control [28]: 67%; kinase still bound, per cent of control [29]: 60%; kinase still bound, per cent of control [30]: 61%; kinase still bound, per cent of control [31]: 6.3%; kinase still bound, per cent of control [32]: 75%; kinase still bound, per cent of control [33]: 56%; kinase still bound, per cent of control [34]: 100%; kinase still bound, per cent of control [35]: 89%; kinase still bound, per cent of control [36]: 57%; kinase still bound, per cent of control [37]: 44%; kinase still bound, per cent of control [38]: 81%; kinase still bound, per cent of control [39]: 38%; kinase still bound, per cent of control [40]: 12%
C=CC(=O)Nc1ccc(C(=O)c2sc(Nc3ccc(N4CCN(C)CC4)cc3OC)nc2N)cc1	9.2	71	100	82	93	32	97	100	100	0	53	100	85	34	37	48	65	98	71	100	kinase still bound, per cent of control [21]: 73%; kinase still bound, per cent of control [22]: 99%; kinase still bound, per cent of control [23]: 68%; kinase still bound, per cent of control [24]: 54%; kinase still bound, per cent of control [25]: 77%; kinase still bound, per cent of control [26]: 7.4%; kinase still bound, per cent of control [27]: 76%; kinase still bound, per cent of control [28]: 100%; kinase still bound, per cent of control [29]: 9.4%; kinase still bound, per cent of control [30]: 82%; kinase still bound, per cent of control [31]: 100%; kinase still bound, per cent of control [32]: 100%; kinase still bound, per cent of control [33]: 96%; kinase still bound, per cent of control [34]: 3.8%; kinase still bound, per cent of control [35]: 100%; kinase still bound, per cent of control [36]: 64%; kinase still bound, per cent of control [37]: 100%; kinase still bound, per cent of control [38]: 3%; kinase still bound, per cent of control [39]: 42%; kinase still bound, per cent of control [40]: 50%

From the kinase profiling compilation of Christmann-Franck et al. (2016)
